Reference: BigSolDB 2.1

**Q.** Which solubility (mole fraction) (in 1,4-dioxane, 278.15 K) does the source give for `CC1=C(O)C(=O)C(C)O1` (stereo not drawn) here?
**A.** Its solubility (mole fraction) is 0.192.

**Q.** And the solubility (mole fraction) (in 1,4-dioxane, 283.15 K)?
**A.** Its solubility (mole fraction) is 0.22.

**Q.** What about the solubility (mole fraction) (in 1,4-dioxane, 288.15 K) of the same compound?
**A.** The solubility (mole fraction) was 0.248.

**Q.** And the solubility (mole fraction) (in 1,4-dioxane, 293.15 K)?
**A.** The solubility (mole fraction) was 0.282.

**Q.** And the solubility (mole fraction) (in 1,4-dioxane, 298.15 K)?
**A.** Its solubility (mole fraction) is 0.315.

**Q.** What about the solubility (mole fraction) (in 1,4-dioxane, 303.15 K) of the same compound?
**A.** The solubility (mole fraction) was 0.357.

**Q.** And the solubility (mole fraction) (in 1,4-dioxane, 308.15 K)?
**A.** Its solubility (mole fraction) is 0.4.

**Q.** And the solubility (mole fraction) (in 1,4-dioxane, 313.15 K)?
**A.** Its solubility (mole fraction) is 0.445.

**Q.** What about the solubility (mole fraction) (in DMF, 278.15 K) of the same compound?
**A.** The solubility (mole fraction) was 0.256.

**Q.** And the solubility (mole fraction) (in DMF, 283.15 K)?
**A.** Its solubility (mole fraction) is 0.281.

**Q.** And the solubility (mole fraction) (in DMF, 288.15 K)?
**A.** Its solubility (mole fraction) is 0.307.

**Q.** And the solubility (mole fraction) (in DMF, 293.15 K)?
**A.** Its solubility (mole fraction) is 0.336.

**Q.** What about the solubility (mole fraction) (in DMF, 298.15 K) of the same compound?
**A.** Its solubility (mole fraction) is 0.368.

**Q.** What about the solubility (mole fraction) (in DMF, 303.15 K) of the same compound?
**A.** Its solubility (mole fraction) is 0.402.

**Q.** What about the solubility (mole fraction) (in DMF, 308.15 K) of the same compound?
**A.** Its solubility (mole fraction) is 0.439.

**Q.** And the solubility (mole fraction) (in DMF, 313.15 K)?
**A.** Its solubility (mole fraction) is 0.479.

**Q.** What about the solubility (mole fraction) (in acetone, 278.15 K) of the same compound?
**A.** The solubility (mole fraction) was 0.127.

**Q.** What about the solubility (mole fraction) (in acetone, 283.15 K) of the same compound?
**A.** Its solubility (mole fraction) is 0.151.

**Q.** And the solubility (mole fraction) (in acetone, 288.15 K)?
**A.** The solubility (mole fraction) was 0.177.

**Q.** And the solubility (mole fraction) (in acetone, 293.15 K)?
**A.** Its solubility (mole fraction) is 0.209.

**Q.** What about the solubility (mole fraction) (in acetone, 298.15 K) of the same compound?
**A.** Its solubility (mole fraction) is 0.244.

**Q.** And the solubility (mole fraction) (in acetone, 303.15 K)?
**A.** Its solubility (mole fraction) is 0.284.

**Q.** And the solubility (mole fraction) (in acetone, 308.15 K)?
**A.** Its solubility (mole fraction) is 0.329.

**Q.** What about the solubility (mole fraction) (in acetone, 313.15 K) of the same compound?
**A.** The solubility (mole fraction) was 0.381.

**Q.** What about the solubility (mole fraction) (in acetonitrile, 278.15 K) of the same compound?
**A.** Its solubility (mole fraction) is 0.0733.

**Q.** And the solubility (mole fraction) (in acetonitrile, 283.15 K)?
**A.** The solubility (mole fraction) was 0.0896.

**Q.** And the solubility (mole fraction) (in acetonitrile, 288.15 K)?
**A.** The solubility (mole fraction) was 0.11.

**Q.** What about the solubility (mole fraction) (in acetonitrile, 293.15 K) of the same compound?
**A.** Its solubility (mole fraction) is 0.134.

**Q.** What about the solubility (mole fraction) (in acetonitrile, 298.15 K) of the same compound?
**A.** The solubility (mole fraction) was 0.164.

**Q.** And the solubility (mole fraction) (in acetonitrile, 303.15 K)?
**A.** The solubility (mole fraction) was 0.202.

**Q.** And the solubility (mole fraction) (in acetonitrile, 308.15 K)?
**A.** Its solubility (mole fraction) is 0.248.

**Q.** And the solubility (mole fraction) (in acetonitrile, 313.15 K)?
**A.** The solubility (mole fraction) was 0.303.

**Q.** And the solubility (mole fraction) (in chloroform, 278.15 K)?
**A.** Its solubility (mole fraction) is 0.256.

**Q.** What about the solubility (mole fraction) (in chloroform, 283.15 K) of the same compound?
**A.** The solubility (mole fraction) was 0.281.

**Q.** What about the solubility (mole fraction) (in chloroform, 288.15 K) of the same compound?
**A.** The solubility (mole fraction) was 0.307.

**Q.** What about the solubility (mole fraction) (in chloroform, 293.15 K) of the same compound?
**A.** The solubility (mole fraction) was 0.336.

**Q.** What about the solubility (mole fraction) (in chloroform, 298.15 K) of the same compound?
**A.** The solubility (mole fraction) was 0.368.

**Q.** And the solubility (mole fraction) (in chloroform, 303.15 K)?
**A.** The solubility (mole fraction) was 0.402.

**Q.** What about the solubility (mole fraction) (in chloroform, 308.15 K) of the same compound?
**A.** The solubility (mole fraction) was 0.439.

**Q.** And the solubility (mole fraction) (in chloroform, 313.15 K)?
**A.** Its solubility (mole fraction) is 0.479.

**Q.** What about the solubility (mole fraction) (in cyclohexanone, 278.15 K) of the same compound?
**A.** The solubility (mole fraction) was 0.105.

**Q.** And the solubility (mole fraction) (in cyclohexanone, 283.15 K)?
**A.** The solubility (mole fraction) was 0.128.

**Q.** And the solubility (mole fraction) (in cyclohexanone, 288.15 K)?
**A.** Its solubility (mole fraction) is 0.155.

**Q.** What about the solubility (mole fraction) (in cyclohexanone, 293.15 K) of the same compound?
**A.** The solubility (mole fraction) was 0.187.

**Q.** And the solubility (mole fraction) (in cyclohexanone, 298.15 K)?
**A.** Its solubility (mole fraction) is 0.225.

**Q.** And the solubility (mole fraction) (in cyclohexanone, 303.15 K)?
**A.** Its solubility (mole fraction) is 0.269.

**Q.** And the solubility (mole fraction) (in cyclohexanone, 308.15 K)?
**A.** Its solubility (mole fraction) is 0.318.

**Q.** What about the solubility (mole fraction) (in cyclohexanone, 313.15 K) of the same compound?
**A.** The solubility (mole fraction) was 0.372.

**Q.** What about the solubility (mole fraction) (in dichloromethane, 278.15 K) of the same compound?
**A.** Its solubility (mole fraction) is 0.139.

**Q.** What about the solubility (mole fraction) (in dichloromethane, 283.15 K) of the same compound?
**A.** The solubility (mole fraction) was 0.16.

**Q.** What about the solubility (mole fraction) (in dichloromethane, 288.15 K) of the same compound?
**A.** The solubility (mole fraction) was 0.189.

**Q.** And the solubility (mole fraction) (in dichloromethane, 293.15 K)?
**A.** The solubility (mole fraction) was 0.219.

**Q.** What about the solubility (mole fraction) (in dichloromethane, 298.15 K) of the same compound?
**A.** The solubility (mole fraction) was 0.254.

**Q.** What about the solubility (mole fraction) (in dichloromethane, 303.15 K) of the same compound?
**A.** The solubility (mole fraction) was 0.292.

**Q.** And the solubility (mole fraction) (in dichloromethane, 308.15 K)?
**A.** Its solubility (mole fraction) is 0.337.

**Q.** And the solubility (mole fraction) (in dichloromethane, 313.15 K)?
**A.** The solubility (mole fraction) was 0.386.

**Q.** And the solubility (mole fraction) (in isopropanol, 278.15 K)?
**A.** The solubility (mole fraction) was 0.181.

**Q.** And the solubility (mole fraction) (in isopropanol, 283.15 K)?
**A.** Its solubility (mole fraction) is 0.211.

**Q.** And the solubility (mole fraction) (in isopropanol, 288.15 K)?
**A.** Its solubility (mole fraction) is 0.24.

**Q.** And the solubility (mole fraction) (in isopropanol, 293.15 K)?
**A.** The solubility (mole fraction) was 0.272.

**Q.** And the solubility (mole fraction) (in isopropanol, 298.15 K)?
**A.** Its solubility (mole fraction) is 0.309.

**Q.** What about the solubility (mole fraction) (in isopropanol, 303.15 K) of the same compound?
**A.** The solubility (mole fraction) was 0.348.

**Q.** And the solubility (mole fraction) (in isopropanol, 308.15 K)?
**A.** The solubility (mole fraction) was 0.387.

**Q.** And the solubility (mole fraction) (in isopropanol, 313.15 K)?
**A.** The solubility (mole fraction) was 0.435.

**Q.** And the solubility (mole fraction) (in methyl acetate, 278.15 K)?
**A.** The solubility (mole fraction) was 0.139.

**Q.** And the solubility (mole fraction) (in methyl acetate, 283.15 K)?
**A.** Its solubility (mole fraction) is 0.16.

**Q.** What about the solubility (mole fraction) (in methyl acetate, 288.15 K) of the same compound?
**A.** Its solubility (mole fraction) is 0.189.

**Q.** What about the solubility (mole fraction) (in methyl acetate, 293.15 K) of the same compound?
**A.** The solubility (mole fraction) was 0.219.

**Q.** And the solubility (mole fraction) (in methyl acetate, 298.15 K)?
**A.** Its solubility (mole fraction) is 0.254.

**Q.** What about the solubility (mole fraction) (in methyl acetate, 303.15 K) of the same compound?
**A.** Its solubility (mole fraction) is 0.292.

**Q.** What about the solubility (mole fraction) (in methyl acetate, 308.15 K) of the same compound?
**A.** Its solubility (mole fraction) is 0.337.

**Q.** What about the solubility (mole fraction) (in methyl acetate, 313.15 K) of the same compound?
**A.** The solubility (mole fraction) was 0.386.

**Q.** And the solubility (mole fraction) (in n-propyl acetate, 278.15 K)?
**A.** The solubility (mole fraction) was 0.139.

**Q.** What about the solubility (mole fraction) (in n-propyl acetate, 283.15 K) of the same compound?
**A.** The solubility (mole fraction) was 0.16.

**Q.** And the solubility (mole fraction) (in n-propyl acetate, 288.15 K)?
**A.** The solubility (mole fraction) was 0.189.

**Q.** What about the solubility (mole fraction) (in n-propyl acetate, 293.15 K) of the same compound?
**A.** Its solubility (mole fraction) is 0.219.

**Q.** And the solubility (mole fraction) (in n-propyl acetate, 298.15 K)?
**A.** Its solubility (mole fraction) is 0.254.

**Q.** And the solubility (mole fraction) (in n-propyl acetate, 303.15 K)?
**A.** Its solubility (mole fraction) is 0.292.

**Q.** And the solubility (mole fraction) (in n-propyl acetate, 308.15 K)?
**A.** The solubility (mole fraction) was 0.337.

**Q.** What about the solubility (mole fraction) (in n-propyl acetate, 313.15 K) of the same compound?
**A.** Its solubility (mole fraction) is 0.386.

**Q.** And the solubility (mole fraction) (in sec-butanol, 278.15 K)?
**A.** The solubility (mole fraction) was 0.105.

**Q.** What about the solubility (mole fraction) (in sec-butanol, 283.15 K) of the same compound?
**A.** The solubility (mole fraction) was 0.128.

**Q.** And the solubility (mole fraction) (in sec-butanol, 288.15 K)?
**A.** Its solubility (mole fraction) is 0.155.

**Q.** What about the solubility (mole fraction) (in sec-butanol, 293.15 K) of the same compound?
**A.** The solubility (mole fraction) was 0.187.

**Q.** What about the solubility (mole fraction) (in sec-butanol, 298.15 K) of the same compound?
**A.** The solubility (mole fraction) was 0.225.

**Q.** And the solubility (mole fraction) (in sec-butanol, 303.15 K)?
**A.** The solubility (mole fraction) was 0.269.

**Q.** What about the solubility (mole fraction) (in sec-butanol, 308.15 K) of the same compound?
**A.** Its solubility (mole fraction) is 0.318.

**Q.** What about the solubility (mole fraction) (in sec-butanol, 313.15 K) of the same compound?
**A.** The solubility (mole fraction) was 0.372.
